Experimental data taken from paper PMC11117723, “Benzene with Alkyl Chains Is a Universal Scaffold for Multivalent Virucidal Antivirals” (ACS Central Science, 2024).
Read-outs that look alike come from different tables or passages of the source.

Legend:
HSV-2 = HSV-2 inhibition (dose response) plaque assay on Vero cells; type: cell-based; details: for EC50: Vero cells, virus pre-incubated with compound 1 h, read-out: HSV-2 EC50 (95% CI)
SARS-CoV-2 (Alpha) = test: SARS-CoV-2 (alpha strain) inhibition plaque assay on Vero E6 cells; type: cell-based; details: Severe acute respiratory syndrome coronavirus 2, Vero C1008, read-out: SARS-CoV-2 (Alpha) EC50 (95% CI)
SARS-CoV-2 Alpha = type: in vivo, Syrian hamster
[1] = Vero cell cytotoxicity (MTS assay); type: cell-based; details: African green monkey, Vero cells, read-out: CC50 (95% CI), Vero cells
HIV-1 (YU-2) = HIV-1 (YU-2) inhibition assay on TZM-bl cells (luciferase); type: cell-based; details: Human immunodeficiency virus 1, read-out: HIV-1 EC50 (95% CI)
in vitro [2] = details: African green monkey
[3] = TZM-bl cell cytotoxicity (WST-1); details: human
SARS-CoV-2 (Omicron) = test: SARS-CoV-2 Omicron dose-response assay on Vero E6 cells; type: cell-based; details: Severe acute respiratory syndrome coronavirus 2, Vero C1008, read-out: SARS-CoV-2 (Omicron) EC50 (95% CI)
GFP-EBV B95-8 (EBV) = test: microbe, parasite or virus in culture; type: cell-based, Epstein–Barr virus (EBV); details: human gammaherpesvirus 4, read-out: EBV EC50 (95% CI)
GFP-KSHV (KSHV) = test: microbe, parasite or virus in culture; type: cell-based, Kaposi’s sarcoma-associated herpesvirus (KSHV); details: Human gammaherpesvirus 8, HEK-293T, read-out: KSHV EC50 (95% CI)
[4] = system: Influenza A/Netherlands/2009 (H1N1); test: H1N1 inhibition assay on MDCK cells (ICC); type: cell-based; details: Influenza A virus, read-out: H1N1 EC50 (95% CI)
SARS-CoV-2 = SARS-CoV-2 Syrian hamster model, intranasal instillation from 12 h; type: in vivo; details: B3C9S solution by intranasal instillation, 1.5, 4.5, 6 mg/kg/day from 12 h
Method: Control Control *** Control
80 Placebo 80 Placebo 80 Placebo
Days post infection Days post infection Days post infection
Figure S10. Body weight of Syrian hamsters treated with 1.5mg/kg/day B3C9S (a), 4.5mg/kg/day B3C9S (b), 6mg/kg/day B3C9S (c) by intranasal instillation. 25 female Syrian hamsters were randomly assigned into five groups (control, placebo and three doses of B3C9S), each containing 5 hamsters. At day 0, each hamster was weighed and inoculated intranasally with 100 μl PBS (control) or 100 μl […] SARS-CoV-2 (placebo and B3C9S). Starting from 12 h after the inoculation, the hamsters in the placebo group and the […]
μg/μl) every day, respectively. The body weight of each hamster was measured every 12 h.
The weight measurements of each hamster were normalized by the initial weight and plotted against time post infection. The error bars represent the means ± standard deviations (n = 5). The asterisks represent the p value (*, <0.05; **, <0.01; ***, <0.001) calculated by two-tailed unpaired t test.
(also on this page, place not known: Body weight (%) Body weight (%) Body weight (%))

in vitro [5] = details: dog
[6] = Raji cell cytotoxicity (Zombie NIR flow cytometry); details: human
[7] = HEK293T cell cytotoxicity (Zombie NIR flow cytometry); details: human
Vero cells = test: Vero cell cytotoxicity (MTS assay); type: cell-based; details: 24 h, read-out: CC50 (95% CI), Vero cells
Vero E6 cells = details: read-out: CC50 (95% CI), Vero E6 cells, SARS-CoV-2 (Alpha) line
TZM-bl cells = test: TZM-bl cell cytotoxicity (WST-1); details: read-out: CC50 (95% CI), TZM-bl cells; HIV-1 line

O=S(=O)(O)OCCOCCOCCOCCSCc1cc(CSCCOCCOCCOCCOS(=O)(=O)O)cc(CSCCOCCOCCOCCOS(=O)(=O)O)c1 [B3PEG4S]
HSV-2 inhibition at 400 μM (HSV-2; 400 μM): No inhibition
EC50 (HSV-2; Human alphaherpesvirus 2, Vero): > 400 µM
EC50 (SARS-CoV-2 (Alpha)): > 400 µM

CC(C)(C)[C@H](NC(=O)C(F)(F)F)C(=O)N1C[C@H]2[C@@H]([C@H]1C(=O)N[C@H](C#N)C[C@@H]1CCNC1=O)C2(C)C [nirmatrelvir, reference compound]
viral RNA levels in oral swab vs untreated (SARS-CoV-2 Alpha; […], nirmatrelvir 250 mg/kg orally, P = 0.0021): significantly lower viral RNA levels
viral RNA copies in lung vs untreated (SARS-CoV-2 Alpha; […], nirmatrelvir 250 mg/kg orally, P = 0.0031): significantly decreased viral RNA copies
infectious viral titer (TCID50) in the lungs vs untreated (SARS-CoV-2 Alpha; […], nirmatrelvir 250 mg/kg orally, P = 0.0066): significantly decreased the viral titer
infectious viral titer (TCID50) in the lungs vs untreated (SARS-CoV-2 Alpha; […], nirmatrelvir 250 mg/kg orally, P = 0.012): significantly decreased the viral titer
infectious viral titer (TCID50) in the lungs vs untreated (SARS-CoV-2 Alpha; […], nirmatrelvir 250 mg/kg orally, P = 0.079): no significant difference
histopathological evaluation of lung tissues (SARS-CoV-2 Alpha; nirmatrelvir 250 mg/kg orally): improved pulmonary conditions
severe lung damage (histopathology categories E and F) (SARS-CoV-2 Alpha; nirmatrelvir 250 mg/kg orally, P = 0.03): reducing severe lung damage

O=S(=O)(O)OCCCCCCCCCCCSCc1cc(CSCCCCCCCCCCCOS(=O)(=O)O)cc(CSCCCCCCCCCCCOS(=O)(=O)O)c1 [B3C11S]
EC50 (HSV-2; Human alphaherpesvirus 2, Vero): 26.2 µM
CC50 at 24 h [1]: 384 µM
EC50 (SARS-CoV-2 (Alpha)): 0.84 µM
EC50 (HIV-1 (YU-2)): 6.44 µM
CC50 (in vitro [2]): 11.2 µM
CC50 at 6 h ([3]; TZM-bl cells): > 100 µM

O=S(=O)(O)OCCCCCCSCc1cc(CSCCCCCCOS(=O)(=O)O)cc(CSCCCCCCOS(=O)(=O)O)c1 [B3C6S]
EC50 (HSV-2; Human alphaherpesvirus 2, Vero): 78.4 µM
CC50 at 24 h [1]: > 530 µM
EC50 (SARS-CoV-2 (Alpha)): 195 µM
EC50 (HIV-1 (YU-2)): 5.47 µM
CC50 (in vitro [2]): > 530 µM
CC50 at 6 h ([3]; TZM-bl cells): > 133 µM

O=S(=O)(O)OCCCCCCCCCCO[C@H]1[C@H](OS(=O)(=O)O)[C@H](OCCCCCCCCCCOS(=O)(=O)O)[C@H](OS(=O)(=O)O)[C@@H](OCCCCCCCCCCOS(=O)(=O)O)[C@@H]1OS(=O)(=O)O [I3C10S]
EC50 (HSV-2; Human alphaherpesvirus 2, Vero): 163 µM
CC50 at 24 h [1]: > 359 µM
EC50 (SARS-CoV-2 (Alpha)): 458 µM
CC50 (in vitro [2]): > 356 µM

O=S(=O)(O)OCCCCCCCCCSCc1cc(CSCCCCCCCCCOS(=O)(=O)O)cc(CSCCCCCCCCCOS(=O)(=O)O)c1 [B3C9S]
EC50 (HSV-2; Human alphaherpesvirus 2, Vero): 7.9 µM
EC50 (HSV-2): 7.92 µM
CC50 at 24 h [1]: 331 µM
EC50 (SARS-CoV-2 (Alpha)): 1.1 µM
EC50 (SARS-CoV-2 (Omicron)): 1.37 µM
EC50 (HIV-1 (YU-2)): 6.34 µM
EC50 (GFP-EBV B95-8 (EBV)): 46.5 µM
EC50 (GFP-KSHV (KSHV)): 48.2 µM
EC50 [4]: 5.11 µM
efficacy with aerosol treatment compared with B6C11S (SARS-CoV-2 Alpha; hamster, in vivo): less effective
viral titer (viral RNA) in the lungs (SARS-CoV-2 Alpha; hamster, in vivo): significantly decreased the viral titer
viral titer (viral RNA) in the oral swab (SARS-CoV-2 Alpha; hamster, in vivo): significantly reduced
viral titer in oral swab and lung tissues vs untreated (SARS-CoV-2 Alpha; hamster, in vivo): No statistical difference
body weight loss of infected hamsters (SARS-CoV-2): reduced the body weight loss
CC50 (in vitro [2]): 14.7 µM
CC50 (in vitro [5]): 16.6 µM
CC50 at 6 h ([3]; TZM-bl cells): > 113 µM
CC50 at 2 days ([6]; Raji cells): > 341 µM
CC50 at 2 days ([7]; HEK293T cells): 162 µM

O=S(=O)(O)OCCCCCCCCCSCC(CSCCCCCCCCCOS(=O)(=O)O)(CSCCCCCCCCCOS(=O)(=O)O)CSCCCCCCCCCOS(=O)(=O)O [P4C9S]
EC50 (HSV-2; Human alphaherpesvirus 2, Vero): 6.5 µM
EC50 (HSV-2): 6.48 µM
CC50 at 24 h [1]: 185 µM
EC50 (SARS-CoV-2 (Alpha)): 0.48 µM
EC50 (HIV-1 (YU-2)): 1.94 µM
EC50 (GFP-EBV B95-8 (EBV)): 33.9 µM
EC50 (GFP-KSHV (KSHV)): 20.8 µM
CC50 (in vitro [2]): 4 µM
CC50 at 6 h [3]: 18.4 µM
CC50 at 2 days [6]: > 276 µM
CC50 at 2 days [7]: 122 µM

O=c1n(CCSCCCCCCCCCOS(=O)(=O)O)c(=O)n(CCSCCCCCCCCCOS(=O)(=O)O)c(=O)n1CCSCCCCCCCCCOS(=O)(=O)O [A3C9S]
EC50 (HSV-2; Human alphaherpesvirus 2, Vero): 20.1 µM
CC50 at 24 h [1]: 221 µM
EC50 (SARS-CoV-2 (Alpha)): 23.1 µM
CC50 (in vitro [2]): 39.5 µM

CCc1c(CSCCCCCCOS(=O)(=O)O)c(CC)c(CSCCCCCCOS(=O)(=O)O)c(CC)c1CSCCCCCCOS(=O)(=O)O [BET3C6S]
EC50 (HSV-2; Human alphaherpesvirus 2, Vero): 28.5 µM
CC50 at 24 h [1]: > 477 µM
EC50 (SARS-CoV-2 (Alpha)): > 119 µM
EC50 (HIV-1 (YU-2)): 8.22 µM
CC50 (in vitro [2]): 451 µM
CC50 at 6 h [3]: > 119 µM

O=S(=O)(O)OCCCCCCCCCSCC(COS(=O)(=O)O)(COS(=O)(=O)O)CSCCCCCCCCCOS(=O)(=O)O [P2C9S]
EC50 (HSV-2; Human alphaherpesvirus 2, Vero): 326 µM
EC50 (SARS-CoV-2 (Alpha)): > 1300 µM
CC50 (in vitro [2]): > 1300 µM

O=S(=O)(O)OCCCCCCCCCSCc1cccc(CSCCCCCCCCCOS(=O)(=O)O)c1CSCCCCCCCCCOS(=O)(=O)O [OB3C9S]
EC50 (HSV-2; Human alphaherpesvirus 2, Vero): 18 µM
CC50 at 24 h [1]: 135 µM
EC50 (SARS-CoV-2 (Alpha)): 1.4 µM
CC50 (in vitro [2]): 18.4 µM

CCc1c(CSCCCCCCCCCOS(=O)(=O)O)c(CC)c(CSCCCCCCCCCOS(=O)(=O)O)c(CC)c1CSCCCCCCCCCOS(=O)(=O)O [BET3C9S]
EC50 (HSV-2; Human alphaherpesvirus 2, Vero): 13.1 µM
CC50 at 24 h [1]: 81.6 µM
EC50 (SARS-CoV-2 (Alpha)): 1.1 µM
EC50 (SARS-CoV-2 (Omicron)): > 104 µM
EC50 (HIV-1 (YU-2)): 6.12 µM
CC50 (in vitro [2]): 17 µM
CC50 at 6 h [3]: 29.7 µM

O=S(=O)(O)OCCCCCCCCCSCc1c(CSCCCCCCCCCOS(=O)(=O)O)c(CSCCCCCCCCCOS(=O)(=O)O)c(CSCCCCCCCCCOS(=O)(=O)O)c(CSCCCCCCCCCOS(=O)(=O)O)c1CSCCCCCCCCCOS(=O)(=O)O [B6C9S]
CC50 (Vero cells): 42.7 µM
CC50 (Vero E6 cells): 3.9 µM
CC50 (TZM-bl cells): 10.5 µM

O=S(=O)(O)OCCCCCCCCCCn1cc(COc2cc(OCc3cn(CCCCCCCCCCOS(=O)(=O)O)nn3)cc(OCc3cn(CCCCCCCCCCOS(=O)(=O)O)nn3)c2)nn1 [BTA3C10S]
EC50 (HSV-2; Human alphaherpesvirus 2, Vero): 17.1 µM
CC50 at 24 h [1]: > 371 µM
EC50 (SARS-CoV-2 (Alpha)): > 93 µM
EC50 (HIV-1 (YU-2)): 5.25 µM
EC50 [4]: 22.9 µM
CC50 (in vitro [2]): > 929 µM
CC50 (in vitro [5]): > 930 µM
CC50 at 6 h [3]: > 93 µM

O=S(=O)(O)OCCCCCCCCCSCC(COS(=O)(=O)O)(CSCCCCCCCCCOS(=O)(=O)O)CSCCCCCCCCCOS(=O)(=O)O [P3C9S]
EC50 (HSV-2; Human alphaherpesvirus 2, Vero): 24.4 µM
CC50 at 24 h [1]: 522 µM
EC50 (SARS-CoV-2 (Alpha)): 10.3 µM
EC50 (SARS-CoV-2 (Omicron)): > 1080 µM
CC50 (in vitro [2]): 413 µM
